Experiments:
[1] = target: CSF-1R kinase (Homo sapiens (Human), UniProt P07333); test: CSF-1R kinase assay (AlphaScreen); type: biochemical
Protocol: Inhibition of CSF-1R kinase activity by a test compound disclosed herein was estimated by AlphaScreen (PerkinElmer). […] Reactions were incubated at 30° C. for 45 min and stopped by adding 5 μL of 50 mM EDTA. Analysis of resulting product using an AlphaScreen kit, and counted with Enspire Alpha (PerkinElmer). […] The IC50 values of quinoxaline compounds of this invention against CSF-1R kinase were determined using the GraphPad Prism 5 software.

[2] = target: c-KIT kinase (Homo sapiens (Human), UniProt P10721); test: c-KIT kinase assay (radiometric); type: biochemical
Protocol: (§1) Inhibition of c-KIT kinase activity by a test compound disclosed herein was estimated by radiometric assay. Standard assay conditions were 20 ng of recombinant c-Kit (SignalChem) with 2 μg of substrate Poly-(Glu 4:Tyr 1) (sigma) in the assay buffer in kinase reaction buffer (10 mM MOPS pH 7.0, 0.21 mM EDTA, 0.5% glycerol, 0.001% Brij-35, 0.01 2-mercaptoehtanol, 1 mg/ml BSA, 10 mM MgCl2, 10 mM MnCl2, 10 μM ATP, 0.1 μCi per well [^33P]-ATP, in the presence of test compound (diluted in final concentration of 4% DMSO) or DMSO control, with a final volume of 25 μl for 60 minutes at 30° C. The reaction was stopped by adding 5 μl of 3% phosphoric acid solution. Total reaction solution was then harvested onto a filter plate (UniFilter-96 GF/B, PerkinElmer), and washed 20 times for 5 min with dH2O. 30 μl of MicroScint™-20 Cocktail (PerkinElmer) was added to dried plate. The plate was sealed and counted using a TopCount scintillation detector (PerkinElmer). […] The IC50 values of quinoxaline compounds of this invention against c-KIT kinase were determined using the GraphPad Prism 5 software.
(§2) The IC50 values for selected quinoxaline compounds of this invention against CSF-1R, c-KIT, FLT3, and PDGFRβ are summarized in Table 3.

[3] = target: FLT3 kinase (Homo sapiens (Human), UniProt P36888); test: FLT3 kinase assay (radiometric); type: biochemical; conditions: bound
Protocol: as §1, with “of FLT3” for “of c-KIT”, “were 5” for “were 20”, “recombinant FLT3 (Thermo Fisher)” for “recombinant c-Kit (SignalChem)”, “BSA, MgCl2” for “BSA,”, “10 mM,” for “10 mM MgCl2, 10 mM MnCl2,”, “against FLT3” for “against c-KIT”
as §2

[4] = target: PDGFRβ kinase (Homo sapiens (Human), UniProt P09619); test: PDGFRβ kinase assay (radiometric); type: biochemical; conditions: bound
Protocol: as §1, with “of PDGFRβ” for “of c-KIT”, “were 10” for “were 20”, “recombinant PDGFRβ” for “recombinant c-Kit”, “well [^33P]-ATP),” for “well [^33P]-ATP,”, “against PDGFRβ” for “against c-KIT”
as §2

[5] = test system: CSF-1-dependent M-NFS-60 mouse myeloid leukemia cell; test: M-NFS-60 cell proliferation assay (CellTiter-96); type: cell-based; conditions: Cytotoxicity, M-NFS-60 cells, 72 hours
Protocol: (§3) Inhibition of cell growth by compounds was measured using CellTiter™-96 assay. The cytotoxicity of compounds was evaluated in CSF-1-dependent M-NFS-60 mouse myeloid leukemia cell, FLT3 signal addicted MV4-11 human acute myeloid leukemia cell with FLT3-ITD mutation, c-KIT signal addicted Kasumi-1 human acute myeloid leukemia cell with c-KIT N822K activating mutation, and THP-1 human acute monocytic leukemia cell harboring NRAS G12D mutation.
The compounds disclosed herein were tested in M-NFS-60 cell proliferation assay to determine their cellular potency against CSF-1R. […] Inhibition of CSF-1R kinase activity will cause reduced growth and/or cell death. […] Cells were allowed to expand until reaching saturation at which point they were subcultured or harvested for assay use.
(§4) M-NFS-60, Kasumi-1, MV4-11 and THP-1 cells were seeded into 96-well plates at 2000, 64000, 6500, and 5000 cells/well, respectively, and incubated at 37° C., 5% CO2 overnight. Then, these seeded cells were treated with increasing concentrations of the test compounds and incubated for another 72 hours. At the end of the incubation, CellTiter96® AQueous One Solution Reagent (Promega) was added and incubated for 4 hours. Cell viability was determined by measuring absorbance at 490 nm using EMax® microplate reader (Molecular Devices).

[6] = test system: MV4-11 human acute myeloid leukemia cell with FLT3-ITD mutation; test: MV4-11 cell proliferation assay (CellTiter-96); type: cell-based; conditions: Cytotoxicity, MV4-11 cells, 72 hours
Protocol: as §3
(§5) The compounds disclosed herein were tested in MV4-11 cell proliferation assay to determine their cellular potency against FLT3 kinase. MV4-11 human acute myeloid leukemia cells harbor ligand-independent FLT3-ITD activating mutation, which render its proliferation FLT3-ITD dependent. Inhibition of FLT3 kinase activity will cause reduced growth and/or cell death. […] Cells were allowed to expand until reaching saturation at which point they were subcultured or harvested for assay use.
as §4

[7] = test system: Kasumi-1 human acute myeloid leukemia cell with c-KIT N822K activating mutation; test: Kasumi-1 cell proliferation assay (CellTiter-96); type: cell-based; conditions: Cytotoxicity, Kasumi-1 cells, 72 hours
Protocol: as §3
as §5, with “Kasumi” for “MV4-11”, “c-KIT” for “FLT3”, “N822K c-KIT” for “FLT3-ITD”, “thus the cell” for “which render its”, “relied on c-KIT signal.” for “FLT3-ITD dependent.”
as §4

[8] = test system: THP-1 human acute monocytic leukemia cell harboring NRAS G12D mutation; test: THP-1 cell proliferation assay (counter screen, CellTiter-96); type: cell-based; conditions: Cytotoxicity, THP-1 cells (counter screen), 72 hours
Protocol: as §3
THP-1 human acute monocytic leukemia cells harbor NRAS G12D mutation, which renders cell proliferate independently of class III RTKs signal. […] Cells were allowed to expand until reaching saturation at which point they were subcultured or harvested for assay use.
as §4

c-KIT kinase, sequence (P10721 26-976): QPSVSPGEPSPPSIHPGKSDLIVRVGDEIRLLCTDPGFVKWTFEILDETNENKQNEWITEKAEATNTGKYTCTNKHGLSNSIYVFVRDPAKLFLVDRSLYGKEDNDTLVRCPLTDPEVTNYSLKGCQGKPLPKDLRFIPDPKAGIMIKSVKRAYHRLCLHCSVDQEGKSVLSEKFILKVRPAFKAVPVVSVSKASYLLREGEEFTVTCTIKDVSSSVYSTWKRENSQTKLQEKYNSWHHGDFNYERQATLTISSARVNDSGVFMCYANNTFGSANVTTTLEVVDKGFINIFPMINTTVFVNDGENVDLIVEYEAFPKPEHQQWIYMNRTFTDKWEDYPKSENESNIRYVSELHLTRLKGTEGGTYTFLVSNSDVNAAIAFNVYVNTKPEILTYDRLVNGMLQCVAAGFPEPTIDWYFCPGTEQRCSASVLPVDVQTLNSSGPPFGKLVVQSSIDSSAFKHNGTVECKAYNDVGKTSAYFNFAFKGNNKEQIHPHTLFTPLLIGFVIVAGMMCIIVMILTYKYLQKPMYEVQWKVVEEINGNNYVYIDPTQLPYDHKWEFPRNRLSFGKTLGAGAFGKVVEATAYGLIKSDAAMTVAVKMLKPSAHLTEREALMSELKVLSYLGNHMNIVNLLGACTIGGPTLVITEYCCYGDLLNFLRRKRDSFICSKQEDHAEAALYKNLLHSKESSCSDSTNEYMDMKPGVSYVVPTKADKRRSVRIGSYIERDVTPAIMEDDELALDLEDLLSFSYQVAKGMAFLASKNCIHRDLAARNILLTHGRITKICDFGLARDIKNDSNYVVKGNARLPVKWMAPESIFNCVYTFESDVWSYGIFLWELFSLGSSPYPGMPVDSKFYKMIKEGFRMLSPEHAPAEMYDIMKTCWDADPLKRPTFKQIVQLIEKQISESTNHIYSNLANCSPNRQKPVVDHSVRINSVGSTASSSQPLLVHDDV
PDGFRβ kinase, sequence (P09619 33-1106): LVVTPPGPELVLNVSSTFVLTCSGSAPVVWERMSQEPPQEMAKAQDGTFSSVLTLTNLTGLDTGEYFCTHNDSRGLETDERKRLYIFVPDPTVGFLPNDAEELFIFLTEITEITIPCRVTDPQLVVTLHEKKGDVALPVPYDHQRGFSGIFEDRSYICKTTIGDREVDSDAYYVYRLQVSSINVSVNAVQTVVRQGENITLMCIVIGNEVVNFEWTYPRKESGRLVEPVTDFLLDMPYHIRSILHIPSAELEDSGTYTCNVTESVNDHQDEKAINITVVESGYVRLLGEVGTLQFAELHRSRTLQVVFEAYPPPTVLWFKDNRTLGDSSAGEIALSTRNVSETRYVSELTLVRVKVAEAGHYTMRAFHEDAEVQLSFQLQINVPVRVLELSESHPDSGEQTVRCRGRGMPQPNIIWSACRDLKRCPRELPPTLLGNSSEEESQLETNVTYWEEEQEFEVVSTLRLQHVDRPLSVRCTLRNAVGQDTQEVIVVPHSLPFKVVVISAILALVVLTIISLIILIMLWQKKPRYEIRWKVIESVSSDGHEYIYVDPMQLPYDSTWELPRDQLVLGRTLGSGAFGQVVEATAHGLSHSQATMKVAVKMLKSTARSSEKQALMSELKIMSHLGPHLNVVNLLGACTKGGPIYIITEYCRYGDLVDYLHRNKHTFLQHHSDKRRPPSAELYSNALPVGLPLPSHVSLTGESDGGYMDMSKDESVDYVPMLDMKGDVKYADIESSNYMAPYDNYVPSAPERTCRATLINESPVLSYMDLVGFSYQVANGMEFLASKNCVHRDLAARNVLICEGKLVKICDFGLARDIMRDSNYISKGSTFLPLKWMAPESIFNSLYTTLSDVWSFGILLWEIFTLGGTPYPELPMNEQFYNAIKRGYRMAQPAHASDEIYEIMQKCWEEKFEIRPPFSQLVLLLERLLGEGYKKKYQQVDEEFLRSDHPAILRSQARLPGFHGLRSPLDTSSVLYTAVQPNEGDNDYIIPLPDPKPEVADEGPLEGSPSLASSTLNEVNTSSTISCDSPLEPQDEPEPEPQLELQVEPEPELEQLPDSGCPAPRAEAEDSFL
CSF-1R kinase, sequence (P07333 20-972): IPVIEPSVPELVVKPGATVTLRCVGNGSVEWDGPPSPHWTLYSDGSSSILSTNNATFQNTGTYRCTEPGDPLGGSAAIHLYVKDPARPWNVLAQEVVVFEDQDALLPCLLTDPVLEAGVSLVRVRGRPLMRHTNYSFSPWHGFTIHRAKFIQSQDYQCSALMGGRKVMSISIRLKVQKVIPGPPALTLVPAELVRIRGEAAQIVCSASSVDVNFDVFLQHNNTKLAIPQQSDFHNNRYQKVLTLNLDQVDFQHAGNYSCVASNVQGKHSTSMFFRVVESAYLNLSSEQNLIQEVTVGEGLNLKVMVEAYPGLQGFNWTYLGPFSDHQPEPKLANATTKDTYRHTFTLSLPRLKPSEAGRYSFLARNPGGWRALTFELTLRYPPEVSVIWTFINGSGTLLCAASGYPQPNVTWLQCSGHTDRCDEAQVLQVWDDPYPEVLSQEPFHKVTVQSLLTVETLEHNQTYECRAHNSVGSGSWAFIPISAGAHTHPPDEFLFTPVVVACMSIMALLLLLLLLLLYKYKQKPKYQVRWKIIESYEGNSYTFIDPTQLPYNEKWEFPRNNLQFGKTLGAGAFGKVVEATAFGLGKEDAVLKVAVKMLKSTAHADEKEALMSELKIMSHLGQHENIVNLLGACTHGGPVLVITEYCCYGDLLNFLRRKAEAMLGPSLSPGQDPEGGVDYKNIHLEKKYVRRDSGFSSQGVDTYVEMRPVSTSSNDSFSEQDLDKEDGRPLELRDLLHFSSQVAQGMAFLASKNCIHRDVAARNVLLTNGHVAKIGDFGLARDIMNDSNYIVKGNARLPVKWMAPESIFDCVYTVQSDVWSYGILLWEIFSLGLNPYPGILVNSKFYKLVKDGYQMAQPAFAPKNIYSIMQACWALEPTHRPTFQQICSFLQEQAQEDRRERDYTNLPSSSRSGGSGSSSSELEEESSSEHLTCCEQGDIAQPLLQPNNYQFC
FLT3 kinase, sequence (P36888 27-993): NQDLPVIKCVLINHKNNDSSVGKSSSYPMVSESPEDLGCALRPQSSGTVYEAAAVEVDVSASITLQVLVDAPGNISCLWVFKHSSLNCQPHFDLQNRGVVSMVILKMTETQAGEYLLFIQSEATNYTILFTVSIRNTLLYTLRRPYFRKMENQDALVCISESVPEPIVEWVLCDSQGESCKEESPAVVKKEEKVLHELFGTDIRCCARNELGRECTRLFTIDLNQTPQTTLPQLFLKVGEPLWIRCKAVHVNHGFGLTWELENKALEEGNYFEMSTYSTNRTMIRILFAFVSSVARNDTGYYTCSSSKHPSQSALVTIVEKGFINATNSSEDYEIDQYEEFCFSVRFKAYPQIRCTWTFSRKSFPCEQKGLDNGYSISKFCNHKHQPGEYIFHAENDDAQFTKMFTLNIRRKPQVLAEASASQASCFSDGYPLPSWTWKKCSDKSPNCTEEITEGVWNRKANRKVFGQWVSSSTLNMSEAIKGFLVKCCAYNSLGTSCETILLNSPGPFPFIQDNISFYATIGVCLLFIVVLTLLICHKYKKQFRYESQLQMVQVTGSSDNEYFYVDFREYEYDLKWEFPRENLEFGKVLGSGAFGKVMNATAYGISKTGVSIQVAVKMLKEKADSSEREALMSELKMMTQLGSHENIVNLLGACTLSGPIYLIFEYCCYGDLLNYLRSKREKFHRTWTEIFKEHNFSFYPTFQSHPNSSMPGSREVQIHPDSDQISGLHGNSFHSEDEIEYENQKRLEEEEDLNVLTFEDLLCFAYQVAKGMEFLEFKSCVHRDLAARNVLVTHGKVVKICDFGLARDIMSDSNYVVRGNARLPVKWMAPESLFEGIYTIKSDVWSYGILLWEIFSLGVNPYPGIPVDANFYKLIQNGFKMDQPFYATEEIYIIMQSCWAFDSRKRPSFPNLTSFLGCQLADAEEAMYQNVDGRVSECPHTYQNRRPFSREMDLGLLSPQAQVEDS

Row | Structure (SMILES) | IC50 ([1]; bound) [nM] | IC50 ([2]; class symbol) [nM] | IC50 [3] [nM] | IC50 [4] [nM] | IC50 ([1]; class symbol) [nM] | IC50 ([2]; bound) [nM] | IC50 [5] [nM] | IC50 [6] [nM] | IC50 [7] [nM] | IC50 [8] [nM]
1 | COc1cnc2ccc(Nc3ccc(NCc4ccc(C(F)(F)F)cc4)nc3)c(C#N)c2n1 [Example 4, 3-methoxy-6-((6-((4-(trifluoromethyl)benzyl)amino)pyridin-3-yl)amino)quinoxaline-5-carbonitrile] | > 1000 | 300 to 1000 | > 1000 | > 1000 |  |  | > 10000 | 1000 to 10000 | 1000 to 10000 | > 10000
2 | COc1cc(Nc2ccc3ncc(N4CCOCC4)nc3c2C#N)ccc1OCc1cc(C)on1 [Example 61, 6-((3-methoxy-4-((5-methylisoxazol-3-yl)methoxy)phenyl)amino)-3-morpholinoquinoxaline-5-carbonitrile] |  | < 100 | > 1000 | > 1000 | < 100 |  | > 10000 | > 10000 | 300 to 1000 | > 10000
3 | CCOc1ccc(COc2ccc(Nc3ccc4ncc(OC)nc4c3C#N)cc2OC)cc1 [Example 20, 6-((4-((4-ethoxybenzyl)oxy)-3-methoxyphenyl)amino)-3-methoxyquinoxaline-5-carbonitrile] |  | < 100 | > 1000 | > 1000 | 300 to 1000 |  | > 10000 | > 10000 | 1000 to 10000 | > 10000
4 | COc1ccc(COc2ccc(Nc3ccc4ncc(OC)nc4c3)cc2OC)cc1 [Example 5, 3-methoxy-N-(3-methoxy-4-((4-methoxybenzyl)oxy)phenyl)quinoxalin-6-amine] |  |  | > 1000 | > 1000 | 100 to 300 | > 1000 | 1000 to 10000 | 1000 to 10000 | 1000 to 10000 | > 10000
5 | COc1cc(Nc2ccc3ncc(N4CCOCC4)nc3c2C#N)ccc1OCc1cnccn1 [Example 51, 6-((3-methoxy-4-(pyrazin-2-ylmethoxy)phenyl)amino)-3-morpholinoquinoxaline-5-carbonitrile] | > 1000 | < 100 | > 1000 | > 1000 |  |  | > 10000 | > 10000 | 300 to 1000 | > 10000

Now from value to compound, other results behind:

Row | IC50 ([1]; bound) [nM] | IC50 ([2]; class symbol) [nM] | IC50 [3] [nM] | IC50 [4] [nM] | IC50 ([1]; class symbol) [nM] | IC50 ([2]; bound) [nM] | Structure (SMILES) | IC50 [5] [nM] | IC50 [6] [nM] | IC50 [7] [nM] | IC50 [8] [nM]
6 | > 1000 | 100 to 300 | > 1000 | > 1000 |  |  | COc1ccc(CNc2ccc(Nc3ccc4ncc(N5CCOCC5)nc4c3C#N)cc2OC)cc1 [Example 39, 6-((3-methoxy-4-((4-methoxybenzyl)amino)phenyl)amino)-3-morpholinoquinoxaline-5-carbonitrile] | > 10000 | 1000 to 10000 | 300 to 1000 | > 10000
7 |  | 100 to 300 | > 1000 | > 1000 | 300 to 1000 |  | COc1cc(Nc2ccc3ncc(N4CCOCC4)nc3c2C#N)ccc1OCc1ccncc1 [Example 46, 6-((3-methoxy-4-(pyridin-4-ylmethoxy)phenyl)amino)-3-morpholinoquinoxaline-5-carbonitrile] | 1000 to 10000 | 1000 to 10000 | 1000 to 10000 | > 10000
8 |  | 300 to 1000 | > 1000 | > 1000 | 100 to 300 |  | COc1ccc(COc2ccc(Nc3ccc4ncc(OCCN(C)C)nc4c3C#N)cc2OC)cc1 [Example 13, 3-(2-(dimethylamino)ethoxy)-6-((3-methoxy-4-((4-methoxybenzyl)oxy)phenyl)amino)quinoxaline-5-carbonitrile] | 1000 to 10000 | 1000 to 10000 | 1000 to 10000 | 1000 to 10000
9 | > 1000 | 300 to 1000 | > 1000 | > 1000 |  |  | COc1cc(Nc2ccc3ncc(N4CCOCC4)nc3c2C#N)ccc1OCc1nccn1C [Example 48, 6-((3-methoxy-4-((1-methyl-1H-imidazol-2-yl)methoxy)phenyl)amino)-3-morpholinoquinoxaline-5-carbonitrile] | > 10000 | > 10000 | 1000 to 10000 | > 10000
10 |  | 100 to 300 | > 1000 | > 1000 | 300 to 1000 |  | COc1cc(Nc2ccc3ncc(N4CCOCC4)nc3c2C#N)ccc1OCC1CC1 [Example 36, 6-((4-(cyclopropylmethoxy)-3-methoxyphenyl)amino)-3-morpholinoquinoxaline-5-carbonitrile] | > 10000 | 1000 to 10000 | 300 to 1000 | > 10000
11 |  | 100 to 300 | > 1000 | > 1000 | 100 to 300 |  | COc1cc(Nc2ccc3ncc(N4CCOCC4)nc3c2C#N)ccc1OCc1ccoc1 [Example 121, 6-((4-(furan-3-ylmethoxy)-3-methoxyphenyl)amino)-3-morpholinoquinoxaline-5-carbonitrile] | 1000 to 10000 | 1000 to 10000 | 300 to 1000 | > 10000

Source: patent US10689362B2, “Quinoxaline compounds as type III receptor tyrosine kinase inhibitors” (Development Center for Biotechnology, priority 2016, dated 2020)
